{"source": "paper PMC4789100", "about": "(Environment international, 2009)", "key": {"[1]": {"biological_target": "T1, sheep placental cytosolic estrogen sulfotransferase (estradiol as substrate) (Ovis aries, UniProt A0ACI6NYW9)", "T1 sequence (A0ACI6NYW9 1-296)": "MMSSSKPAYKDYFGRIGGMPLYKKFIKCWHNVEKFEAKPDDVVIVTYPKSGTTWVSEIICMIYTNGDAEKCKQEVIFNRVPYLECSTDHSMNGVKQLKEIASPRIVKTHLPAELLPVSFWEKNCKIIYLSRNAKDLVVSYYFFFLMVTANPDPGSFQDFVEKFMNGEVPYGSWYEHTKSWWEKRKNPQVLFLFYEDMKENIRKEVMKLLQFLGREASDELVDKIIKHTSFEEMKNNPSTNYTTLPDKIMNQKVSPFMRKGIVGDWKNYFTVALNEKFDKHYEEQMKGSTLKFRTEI", "type": "biochemical"}, "[2]": {"test_system": "expressed human SULT1E1", "conditions": "cited from earlier work"}, "[3]": {"test_system": "sheep placental microsomes", "assay": "Triclosan glucuronidation in placental microsomes with 14C-UDPGA", "type": "in vitro ADME", "conditions": "1 μM Triclosan; limit of detection <0.5 pmol/min/mg protein"}, "[4]": {"conditions": "cited from earlier work"}, "[5]": {"test_system": "sheep placental cytosol", "assay": "Triclosan sulfonation in placental cytosol with 35S-PAPS", "type": "in vitro ADME"}, "[6]": {"assay": "Triclosan sulfonation in placental cytosol with 35S-PAPS", "type": "in vitro ADME, sheep", "conditions": "sheep, sheep placental cytosol, pH 7.4"}, "[7]": {"conditions": "estradiol as substrate, mean±S.D., n=3"}}, "note": "“And” between values parts separate entries of the source, which are not always exact repeats. Equal values may be shown once. “Also recorded” adds a separate entry of the source. Read-outs that look alike come from different tables or passages of the source.", "data": [{"smiles": "O=C(Nc1ccc(Cl)c(Cl)c1)Nc1ccc(Cl)cc1O", "note": "[2′OH-TCC, 2′-hydroxy-triclocarban]", "values": [{"measurement": "IC50", "setting": "[1]; read-out: IC50 for inhibition of estradiol sulfonation, 1 nM estradiol", "value": "310 ± 40", "unit": "nM"}]}, {"smiles": "Oc1c(Cl)cc(-c2ccc(Cl)c(Cl)c2)cc1Cl", "note": "[4′OH-CB79, 4-hydroxy-3,3′,4′,5-tetrachlorobiphenyl]", "values": [{"measurement": "IC50", "setting": "[2]; ref Kester et al., 2000", "value": "0.2 to 0.6", "unit": "nM"}]}, {"smiles": "C[C@]12CC[C@@H]3c4ccc(O)cc4CC[C@H]3[C@@H]1CC[C@@H]2O", "note": "[Estradiol, 17-beta-estradiol]", "values": [{"measurement": "Estradiol concentration above which partial substrate inhibition is displayed", "setting": "[2]; ref Zhang et al.,1998", "value": "above 20 nM"}, {"measurement": "Ki, constant for partial inhibition of estradiol sulfotransferase activity by substrate", "setting": "[1]; [7]", "value": "54.7 ± 25.3", "unit": "nM"}, {"measurement": "Vmin, plateau low rate at high estradiol concentrations", "setting": "[1]; [7]", "value": "12.1±7.7", "unit": "pmol/min/mg protein"}]}, {"smiles": "Oc1cc(Cl)ccc1Oc1ccc(Cl)cc1Cl", "note": "[Triclosan, 5-chloro-2(2,4-dichlorophenoxy)-phenol]", "values": [{"measurement": "Glucuronidation", "setting": "[3]", "value": "not a substrate for glucuronidation; also recorded: no detectable glucuronidation"}, {"measurement": "Reported mean concentration of total Triclosan", "setting": "[4]; Breast milk, Sweden, Control female, ref Allmyr et al., 2006b", "value": "0.02 ng/g and 0.07 nM"}, {"measurement": "Reported mean concentration of total Triclosan", "setting": "[4]; Breast milk, Sweden, Exposed female, ref Allmyr et al., 2006b", "value": "0.54 ng/g and 1.87 nM"}, {"measurement": "Reported mean concentration of total Triclosan", "setting": "[4]; Serum, Australia, Female 2002, ref Allmyr et al., 2008", "value": "14 ng/g and 48.4 nM"}, {"measurement": "Reported mean concentration of total Triclosan", "setting": "[4]; Serum, Australia, Female 2004, ref Allmyr et al., 2008", "value": "7.2 ng/g and 24.9 nM"}, {"measurement": "Reported mean concentration of total Triclosan", "setting": "[4]; Serum, Australia, Male 2004, ref Allmyr et al., 2008", "value": "12 ng/g and 41.5 nM"}, {"measurement": "Reported mean concentration of total Triclosan", "setting": "[4]; Serum, Sweden, Control female, ref Allmyr et al., 2006b", "value": "0.07 ng/g and 0.25 nM"}, {"measurement": "Reported mean concentration of total Triclosan", "setting": "[4]; Serum, Sweden, Exposed female, ref Allmyr et al., 2006b", "value": "16 ng/g and 55.3 nM"}, {"measurement": "Reported mean concentration of total Triclosan", "setting": "[4]; Urine, United States, Female, ref Calafat et al., 2008", "value": "10.6 μg/L and 36.6 nM"}, {"measurement": "Reported mean concentration of total Triclosan", "setting": "[4]; Urine, United States, Male, ref Calafat et al., 2008", "value": "16.2 μg/L and 56.0 nM"}, {"measurement": "Sulfonation apparent Vmax", "setting": "[5]; Triclosan 0.1 to 10 μM, mean±S.D. of three individual samples", "value": "160±26", "unit": "pmol/min/mg protein"}, {"measurement": "Fraction of Triclosan that would be sulfonated", "setting": "[5]; conditions of estradiol or estrone sulfonation assay with 1 nM Triclosan", "value": "less than 0.1%"}, {"measurement": "Km at 15 min", "setting": "[6]", "value": "1.14 ± 0.18", "unit": "µM"}]}]}
